According to US20260167623A1 (NIKANG THERAPEUTICS, INC., priority 2022, published 2026):

The compounds below were run against T1, CDK2 (Homo sapiens, UniProt P24941) (assay: Inhibition of CDK2: phospho-Rb (S807/811) HTRF measurement in OVCAR3 cells, 24 h). Settings: 24 h compound treatment, read-out: pRB_OVCAR3_24h.
T1 construct: High-Throughput Measurement of Cellular Endogenous CDK2; endogenous in cells; host or cells: OVCAR3
Assay type: cell-based
Procedure, shortened: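 OVCAR3 cells, seeded overnight, were exposed to compounds at 0.3 to 10,000 nM for 24 h, then lysed. Rb S807/811 phosphorylation read by HTRF (665/620 nm ratio) after 4 h detection at room temperature; data normalized to DMSO and IC50 from four-parameter logistic fit.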

Row | Compound | IC50 [nM]
1 | Cn1nc(N2CCC(=O)NC2=O)c2ccc(N3CCN(Cc4cccc(S(=O)(=O)N5CCC(Nc6ncc(C(F)(F)F)cn6)CC5)c4)CC3)cc21 [Example 12, 1-(1-methyl-6-(4-(3-((4-((5-(trifluoro-methyl)pyrimidin-2-yl)amino)piperidin-1-yl)sulfonyl)benzyl)piperazin-1-yl)-1H-indazol-3-yl)dihydropyrimidine-2,4(1H,3H)-dione] | 100 to 500
2 | CN(C)c1cnc(NC2CCN(S(=O)(=O)c3cccc(CN4CCC(c5ccc6c(N7CCC(=O)NC7=O)nn(C)c6c5)CC4)c3)CC2)nc1 [Example 70, 1-(6-(1-(3-((4-((5-(dimethylamino)-pyrimidin-2-yl)amino)piperidin-1-yl)-sulfonyl)benzyl)piperidin-4-yl)-1-methyl-1H-indazol-3-yl)dihydropyrimidine-2,4(1H,3H)-dione] | > 2500
3 | Cn1nc(N2CCC(=O)NC2=O)c2ccc(C3CCN(CCCC4CCN(S(=O)(=O)N5CCC(Nc6ncc(C(F)(F)F)cn6)CC5)CC4)CC3)cc21 [Example 36] | 500 to 2500
4 | O=C1CCN(c2nn(CC(F)(F)F)c3cc(N4CCN(Cc5cccc(S(=O)(=O)N6CCC(Nc7ncc(Cl)cn7)CC6)c5)CC4)ccc23)C(=O)N1 [Example 62, 1-(6-(4-(3-((4-((5-chloropyrimidin-2-yl)amino)piperidin-1-yl)sulfonyl)benzyl)-piperazin-1-yl)-1-(2,2,2-trifluoroethyl)-1H-indazol-3-yl)dihydropyrimidine-2,4(1H,3H)-dione] | 100 to 500
5 | Cn1nc(N2CCC(=O)NC2=O)c2ccc(C3CCN(Cc4cccc(S(=O)(=O)N5CCC(Nc6ncc(C(F)F)cn6)CC5)c4)CC3)cc21 [Example 13, 1-(6-(1-(3-((4-((5-(difluoromethyl)-pyrimidin-2-yl)amino)piperidin-1-yl)sulfonyl)benzyl)piperidin-4-yl)-1-methyl-1H-indazol-3-yl)dihydropyrimidine-2,4(1H,3H)-dione] | 100 to 500
6 | O=C1CCC(N2Cc3cc(N4CCC(Oc5cccc(S(=O)(=O)N6CCC(Nc7ncc(C(F)(F)F)cn7)CC6)c5)CC4)ccc3C2=O)C(=O)N1 (stereo not shown) [Example 41, 3-(1-ox0-5-(4-(3-((4-((5-(trifluoromethyl)-pyrimidin-2-yl)amino)piperidin-1-yl)sulfonyl)phenoxy)piperidin-1-yl)isoindolin-2-yl)piperidine-2,6-dione] | 100 to 500
7 | Cn1nc(N2CCC(=O)NC2=O)c2ccc(N3CCC(NCc4cccc(S(=O)(=O)N5CCC(Nc6ncc(Cl)cn6)CC5)c4)CC3)cc21 [Example 84, 1-(6-(4-((3-((4-((5-chloropyrimidin-2-yl)amino)piperidin-1-yl)sulfonyl)benzyl)-amino)piperidin-1-yl)-1-methyl-1H-indazol-3-yl)dihydropyrimidine-2,4(1H,3H)-dione] | > 2500
8 | Cn1nc(N2CCC(=O)NC2=O)c2ccc(C3CCN(CC4CCN(S(=O)(=O)c5ccc(Nc6ncc(C(F)(F)F)cn6)c(F)c5)CC4)CC3)cc21 [Example 18, 1-(6-(1-((1-((3-fluoro-4-((5-(trifluoro-methyl)pyrimidin-2-yl)amino)phenyl)-sulfonyl)piperidin-4-yl)methyl)piperidin-4-yl)-1-methyl-1H-indazol-3-yl)dihydropyrimidine-2,4(1H,3H)-dione] | 500 to 2500

Results, then the compound that gave them:

Row | IC50 [nM] | Compound
9 | 100 to 500 | C[C@H]1CN(CC2CCN(c3cccc(S(=O)(=O)N4CCC(Nc5ncc(Cl)cn5)CC4)c3)CC2)CCN1c1ccc2c(N3CCC(=O)NC3=O)nn(C)c2c1 [Example 117, (S)-1-(6-(4-((1-(3-((4-((5-chloropyrimidin-2-yl)amino)piperidin-1-yl)sulfonyl)phenyl)-piperidin-4-yl)methyl)-2-methylpiperazin-1-yl)-1-methyl-1H-indazol-3-yl)dihydro-pyrimidine-2,4(1H,3H)-dione]
10 | 500 to 2500 | O=C1CCC(NC(=O)c2ccc(C3CCN(CC4CCN(c5cccc(S(=O)(=O)N6CCC(Nc7ncc(Cl)cn7)CC6)c5)CC4)CC3)cc2F)C(=O)N1 (stereo not shown) [Example 237, 4-(1-((1-(3-((4-((5-chloropyrimidin-2-yl)amino)piperidin-1-yl)sulfonyl)phenyl)piperidin-4-yl)methyl)piperidin-4-yl)-N-(2,6-dioxopiperidin-3-yl)-2-fluorobenzamide]
11 | 100 to 500 | Cn1nc(N2CCC(=O)NC2=O)c2ccc(C3CCN(CC4CCN(c5cc(C#N)cc(S(=O)(=O)N6CCC(Nc7ncc(Cl)cn7)CC6)c5)CC4)CC3)cc21 [Example 160, 3-((4-((5-chloropyrimidin-2-yl)amino)piperidin-1-yl)sulfonyl)-5-(4-((4-(3-(2,4-dioxotetrahydropyrimidin-1(2H)-yl)-1-methyl-1H-indazol-6-yl)piperidin-1-yl)methyl)piperidin-1-yl)benzonitrile 2,2,2-trifluoroacetate]
12 | > 2500 | CO[C@@H]1CN(S(=O)(=O)c2cccc(N3CCC(CN4CCC(c5ccc6c(N7CCC(=O)NC7=O)nn(C)c6c5)CC4)CC3)c2)CC[C@@H]1Nc1ncc(Cl)cn1 [Example 218, 1-(6-(1-((1-(3-(((3R,4S)-4-((5-chloropyrimidin-2-yl)amino)-3-methoxypiperidin-1-yl)sulfonyl)phenyl)piperidin-4-yl)methyl)piperidin-4-yl)-1-methyl-1H-indazol-3-yl)dihydropyrimidine-2,4(1H,3H)-dione]
13 | 100 to 500 | Cn1nc(N2CCC(=O)NC2=O)c2ccc(C3CCN(C[C@H]4CCN(c5cccc(S(=O)(=O)N6CCC(Nc7ncc(Cl)cn7)CC6)c5)C4)CC3)cc21 [Example 144, (R)-1-(6-(1-((1-(3-((4-((5-chloropyrimidin-2-yl)amino)piperidin-1-yl)sulfonyl)phenyl)-pyrrolidin-3-yl)methyl)piperidin-4-yl)-1-methyl-1H-indazol-3-yl)dihydropyrimidine-2,4(1H,3H)-dione]
14 | 100 to 500 | O=C1CCN(c2cccc(C3CCN(CC4CCN(c5cccc(S(=O)(=O)N6CCC(Nc7ncc(Cl)cn7)CC6)c5)CC4)CC3)c2)C(=O)N1 [Example 182, 1-(3-(1-((1-(3-((4-((5-chloropyrimidin-2-yl)amino)piperidin-1-yl)sulfonyl)phenyl)piperidin-4-yl)methyl)piperidin-4-yl)phenyl) dihydropyrimidine-2,4(1H,3H)-dione]
15 | 500 to 2500 | Cn1c(=O)n(C2CCC(=O)NC2=O)c2cc(C3CCN(CC4CCN(c5cccc(S(=O)(=O)N6CCC(Nc7ncc(C(F)(F)F)cn7)CC6)c5)CC4)CC3)ccc21 (stereo not shown) [Example 167, 3-(3-methyl-2-oxo-6-(1-((1-(3-((4-((5-(trifluoromethyl)pyrimidin-2-yl)amino)piperidin-1-yl)sulfonyl)phenyl)piperidin-4-yl)methyl)piperidin-4-yl)-2,3-dihydro-1H-benzo[d]imidazol-1-yl)piperidine-2,6-dione]
16 | 500 to 2500 | CC(Cc1cccc(S(=O)(=O)N2CCC(Nc3ncc(OC(F)F)cn3)CC2)c1)CN1CCN(c2cc3c(cc2F)C(=O)N(C2CCC(=O)NC2=O)C3)CC1 (stereo not shown) [Example 102, 3-(5-(4-(3-(3-((4-((5-(difluoromethoxy)-pyrimidin-2-yl)amino)piperidin-1-yl)sulfonyl)phenyl)-2-methylpropyl)-piperazin-1-yl)-6-fluoro-1-oxoisoindolin-2-yl)piperidine-2,6-dione]
